# Source: PMC12207590, “Substrate Specificity of the Organic Cation Transporters MATE1 and MATE2K and Functional Overlap with OCT1 and OCT2” (Journal of Medicinal Chemistry, 2025)
# Read-outs that look alike come from different tables or passages of the source.
# Key:
# MATE1 = target: T1, MATE1 (Homo sapiens, UniProt Q96FL8); assay: Uptake ratio in MATE1-overexpressing HEK293 cells vs empty vector (2.5 μM, 1 min, HPLC-MS/MS); assay type: cell-based; settings: for MATE1 ratio in this study: Table S1
# T1 sequence (Q96FL8 1-570): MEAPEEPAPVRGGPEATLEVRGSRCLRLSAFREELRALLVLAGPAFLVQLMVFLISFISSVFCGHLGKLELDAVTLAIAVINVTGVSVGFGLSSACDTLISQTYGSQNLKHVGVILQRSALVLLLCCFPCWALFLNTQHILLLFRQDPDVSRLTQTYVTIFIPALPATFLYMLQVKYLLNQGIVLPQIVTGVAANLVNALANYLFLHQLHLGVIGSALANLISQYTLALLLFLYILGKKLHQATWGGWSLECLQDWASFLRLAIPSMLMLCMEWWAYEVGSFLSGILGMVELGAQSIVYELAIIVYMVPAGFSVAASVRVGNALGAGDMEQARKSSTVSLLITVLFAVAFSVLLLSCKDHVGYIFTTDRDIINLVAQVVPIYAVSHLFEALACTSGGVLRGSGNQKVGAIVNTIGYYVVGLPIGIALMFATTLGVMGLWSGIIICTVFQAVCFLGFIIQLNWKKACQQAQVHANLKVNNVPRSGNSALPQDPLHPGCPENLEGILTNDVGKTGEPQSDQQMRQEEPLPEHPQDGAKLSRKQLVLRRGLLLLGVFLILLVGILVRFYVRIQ
# MATE2K = MATE2K (Homo sapiens, UniProt Q86VL8); assay: Uptake ratio in MATE2K-overexpressing HEK293 cells vs empty vector (2.5 μM, 1 min, HPLC-MS/MS); assay type: cell-based; settings: for MATE2K ratio in this study: Table S1
# Sequence of MATE2K (Q86VL8 1-566 isoform Q86VL8-3): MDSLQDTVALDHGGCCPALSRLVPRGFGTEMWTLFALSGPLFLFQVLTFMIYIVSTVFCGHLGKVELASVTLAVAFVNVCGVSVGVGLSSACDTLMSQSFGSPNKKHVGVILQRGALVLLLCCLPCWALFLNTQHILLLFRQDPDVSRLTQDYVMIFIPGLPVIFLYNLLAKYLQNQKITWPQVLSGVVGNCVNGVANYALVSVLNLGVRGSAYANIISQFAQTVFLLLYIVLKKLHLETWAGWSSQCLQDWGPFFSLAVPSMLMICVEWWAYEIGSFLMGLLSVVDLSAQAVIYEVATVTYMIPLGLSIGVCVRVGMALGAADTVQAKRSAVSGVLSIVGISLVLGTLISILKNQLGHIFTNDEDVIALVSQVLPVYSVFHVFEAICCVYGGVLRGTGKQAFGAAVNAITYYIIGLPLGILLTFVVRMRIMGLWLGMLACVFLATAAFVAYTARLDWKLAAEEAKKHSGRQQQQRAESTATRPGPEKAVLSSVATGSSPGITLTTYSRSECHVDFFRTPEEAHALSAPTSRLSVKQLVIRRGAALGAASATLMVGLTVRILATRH
# [1] = uptake ratio MATE1-overexpressing vs empty-vector HEK293 cells, 2.5 μM, 1 min, mean
# [2] = uptake ratio MATE2K-overexpressing vs empty-vector HEK293 cells, 2.5 μM, 1 min, mean
# [3] = fold uptake over empty vector, 2.5 μM, 1 min
# [4] = mean ratio of uptake in MATE1-overexpressing HEK293 cells vs empty vector, 2.5 μM, 1 min
# [5] = mean ratio of uptake in MATE2K-overexpressing HEK293 cells vs empty vector, 2.5 μM, 1 min
# [6] = fold uptake over empty vector, 2.5 μM, 1 min, listed as reproterol
structure (smiles),measurement,setting,value
COC(=O)[C@@H]1[C@H]2C[C@H]3c4[nH]c5ccccc5c4CCN3C[C@@H]2CC[C@@H]1O [Yohimbin],MATE1,MATE1; [1],1.11
same,MATE2,MATE2K; [2],1.35
Nc1nc(NC2CC2)c2ncn([C@H]3C=C[C@@H](CO)C3)c2n1 [Abacavir],MATE1 ratio,MATE1; [3],0.94
same,MATE1 (uptake ratio),MATE1; [4],0.94
same,MATE2K ratio,MATE2K; [3],1.25
same,MATE2 (uptake ratio),MATE2K; [5],1.25
CNC(=C[N+](=O)[O-])NCCSCc1csc(CN(C)C)n1 [Nizatidine],MATE1 ratio,MATE1; [3],11.88
same,MATE2K ratio,MATE2K; [3],10.42
COc1cccc(C2(O)CCCCC2CN(C)C)c1 (stereo not drawn) [Tramadol],MATE1,MATE1,1.13
same,MATE2,MATE2K,1.44
C/C=C(\C)C(=O)OC(CC(=O)[O-])C[N+](C)(C)C (stereo not drawn) [Tiglylcarnitine],MATE1,MATE1; [1],0.96
same,MATE2,MATE2K; [2],0.76
Nc1cccc2c1CN(C1CCC(=O)NC1=O)C2=O (stereo not drawn) [Lenalidomide],MATE1 ratio,MATE1; [3],1.78
same,MATE2K ratio,MATE2K; [3],1.53
NCCCCN=C(N)N [Agmatine],MATE1 ratio in this study,"MATE1; 2.5 μM, 1 min",1.08
same,MATE1 ratio,MATE1; [3],1.08
same,MATE1 (uptake ratio),MATE1; [4],1.08
same,MATE2K ratio in this study,"MATE2K; 2.5 μM, 1 min",1.05
same,MATE2K ratio,MATE2K; [3],1.05
same,MATE2 (uptake ratio),MATE2K; [5],1.05
COc1ccc(CCN)cc1 [4-Methoxyphenethylamine],MATE1 (uptake ratio),MATE1,1.4
same,MATE1 ratio,MATE1,1.40
same,MATE2 (uptake ratio),MATE2K,1.23
same,MATE2K ratio,MATE2K,1.23
CN(C)CCOC(=O)C(c1ccccc1)C1(O)CCCC1 (stereo not drawn) [Cyclopentolate],MATE1 ratio,MATE1; [3],1.09
same,MATE2K ratio,MATE2K; [3],1.34
O=C(O)c1cccnc1 [Niacin],MATE1 ratio,MATE1; [3],1.06
same,MATE2K ratio,MATE2K; [3],0.90
CC(C)Nc1cccnc1N1CCN(C(=O)c2cc3cc(NS(C)(=O)=O)ccc3[nH]2)CC1 [Delavirdine],MATE1 ratio,MATE1; [3],1.19
same,MATE2K ratio,MATE2K; [3],1.09
CC(C)NC(=N)NC(=N)Nc1ccc(Cl)cc1 [Proguanil],MATE1 ratio in this study,"MATE1; 2.5 μM, 1 min",5.54
same,MATE1 ratio,MATE1; [3],5.54
same,MATE2K ratio in this study,"MATE2K; 2.5 μM, 1 min",3.98
same,MATE2K ratio,MATE2K; [3],3.98
Nc1ncn([C@H]2C[C@H](O)[C@@H](CO)O2)c(=O)n1 [Decitabine],MATE1 ratio,MATE1; [3],1.13
same,MATE2K ratio,MATE2K; [3],1.04
"COc1ccc(CCNC[C@H](O)c2ccc(O)cc2)cc1OC [Denopamine (R), Denopamine]",MATE1 ratio,MATE1; [3],2.32
same,MATE2K ratio,MATE2K; [3],1.69
CC(CCc1ccc(O)cc1)NCC(O)c1ccc(O)cc1 (stereo not drawn) [Ractopamine],MATE1,MATE1,4.56
same,MATE1 ratio,MATE1,4.56
same,MATE2,MATE2K,1.4
same,MATE2K ratio,MATE2K,1.40
NCCCCCN [Cadaverine],MATE1 (uptake ratio),MATE1,0.23
same,MATE1 ratio,MATE1,0.23
same,MATE2 (uptake ratio),MATE2K,0.53
same,MATE2K ratio,MATE2K,0.53
"CC(N)Cc1cccc(C(F)(F)F)c1 (stereo not drawn) [Norfenfluramine (+), Norfenfluramine]",MATE1 ratio,MATE1,1.22
same,MATE2K ratio,MATE2K,1.45
CCc1nn(CCCN2CCN(c3cccc(Cl)c3)CC2)c(=O)n1CCOc1ccccc1 [Nefazodone],MATE1 ratio,MATE1; [3],1.34
same,MATE2K ratio,MATE2K; [3],1.24
COc1ccc([C@H](CN(C)C)C2(O)CCCCC2)cc1 [Venlafaxine (R)],MATE1,MATE1,1.14
same,MATE2,MATE2K,1.36
"CCN1CCCC1CNC(=O)c1cc(S(=O)(=O)CC)c(N)cc1OC [Amisulpride (R), Amisulpride]",MATE1 ratio,MATE1; [3],8.46
same,MATE1 (uptake ratio),MATE1; [4],8.46
same,MATE2K ratio,MATE2K; [3],7.40
same,MATE2 (uptake ratio),MATE2K; [5],7.4
CC[C@@H]1C(=O)OC[C@@H]1Cc1cncn1C [Pilocarpine],MATE1 ratio,MATE1; [3],1.39
same,MATE2K ratio,MATE2K; [3],1.39
Cn1c(=O)c2c(ncn2CCCNCC(O)c2cc(O)cc(O)c2)n(C)c1=O (stereo not drawn) [Reproterol],MATE1 ratio,MATE1; [3],5.18
same,MATE1 ratio,MATE1; [6],5.2
same,MATE1,MATE1; [1],5.18
same,MATE2K ratio,MATE2K; [3],17.96
same,MATE2K ratio,MATE2K; [6],17.9
same,MATE2,MATE2K; [2],17.96
C[N+]1(C)CCC[C@H]1C(=O)[O-] [Stachydrine],MATE1 ratio,MATE1; [3],0.83
same,MATE1,MATE1; [1],0.83
same,MATE2K ratio,MATE2K; [3],1.31
same,MATE2,MATE2K; [2],1.31
O=C(c1ccc(OCCN2CCCCC2)cc1)c1c(-c2ccc(O)cc2)sc2cc(O)ccc12 [Raloxifene],MATE1 ratio,MATE1; [3],1.12
same,MATE1,MATE1; [1],1.12
same,MATE2K ratio,MATE2K; [3],1.12
same,MATE2,MATE2K; [2],1.12
